Experimental data reported in patent US9694061B2, “Fully human antibodies to high molecular weight-melanoma associated antigen and uses thereof” (University of Pittsburgh—Of the Commonwealth System of …, priority 2008, dated 2017).

Tests used:
scFv C21 [1] = assay: ELISA of synthetic peptides immobilized on plate with scFv C21; type: binding, human; conditions: peptide immobilized by 0.25% glutaraldehyde PBS
Method: FIG. 7. Reactivity in ELISA of scFv C21 with synthetic peptides derived from those isolated by panning the phage display peptide library X15 with scFv C21. Ninety-six well plates were coated for 2 h at 37° C. with synthetic peptides P1C21 ( ? ), P2C21 (125 μM) ( ? ), and P3C21 (125 μM) ( ? ), in 0.25% glutaradehyde-PBS. Following blocking with PBS-1% BSA, wells were incubated for 2 h at room temperature with 50 μl of PP scFv C21 at and 50 μl of biotinylated mAb 9E10 (2.5 μg/ml 1% BSA-PBS). Binding of scFv antibody to ? peptides was detected by addition of SA-HRP. Results are expressed as absorbance at […]. […]
The ELISA to test the reactivity of soluble scFv antibodies with synthetic peptides and melanoma cells and of mouse immune sera with melanoma cells and with peptides was performed as described (Desai et al., Cancer Res 58:2417-2425, 1998; Desai et al., J Immunol 165:3275-3283, 2000; Matsui et al., J Immunol 139:2088-2095, 1987). Results are expressed as absorbance of optical density (O.D.) at 450 nm. The competition assay to map the antigenic determinant recognized by scFv C21 was performed by mixing biotinylated scFv C21 (0.25 μg/well) with two-fold dilutions of mouse mAb or scFv PP or by mixing biotinylated mAb (at an optimal amount giving absorbance, measured at 450 nm of 1.0) with two fold dilutions of scFv PP. […]

scFv C21 [2] = assay: Inhibition by synthetic peptides of scFv C21 binding to Colo38 cells; set-up: species or system human; conditions: for Inhibition of the binding of scFv C21 to HMW-MAA+ melanoma cells Colo38: soluble peptide, FIG. 8
Method: FIG. 8. Inhibition of the reactivity of scFv C21 with HMW-MAA^+ cells Colo38 by synthetic peptides P1C21 and P3C21 and by modified peptide P3C21. Varying concentrations of synthetic peptides P1C21 (-●-), P3C21(-▴-), P3A5 (-⋄-), P3V7 ( ? ) and P3S10 ( ? ) were incubated for 2 h at 4° C. with 50 μl of PP scFv (1:1600 dilution in 1% BSA-PBS) and 50 μl of biotinylated mAb 9E10 (2.5 μg/ml 1% BSA-PBS). The mixture was then transferred to wells containing cells Colo38. Binding of scFvC21 was detected using SA-HRP (top panel). Results are expressed as % inhibition. The unrelated peptide MART-1 (-∇-) and the scFv #28 (bottom panel) which recognizes an unrelated HMW-MAA determinant were used as specificity controls.
The ELISA to test the reactivity of soluble scFv antibodies with synthetic peptides and melanoma cells and of mouse immune sera with melanoma cells and with peptides was performed as described (Desai et al., Cancer Res 58:2417-2425, 1998; Desai et al., J Immunol 165:3275-3283, 2000; Matsui et al., J Immunol 139:2088-2095, 1987). Results are expressed as absorbance of optical density (O.D.) at 450 nm. The competition assay to map the antigenic determinant recognized by scFv C21 was performed by mixing biotinylated scFv C21 (0.25 μg/well) with two-fold dilutions of mouse mAb or scFv PP or by mixing biotinylated mAb (at an optimal amount giving absorbance, measured at 450 nm of 1.0) with two fold dilutions of scFv PP. […] Binding of biotinylated scFv antibodies and biotinylated mAb to target cells was measured by sequential incubation with SA-HRP and substrate as described (Noronha et al., J Immunol 161:2968-2976, 1998). The results are expressed as percent inhibition by mAb, scFv or peptide (competitor or inhibitor) of scFv or mAb binding to HMW-MAA^+ cells. The percent inhibition was calculated using the formula: % inhibition=((OD450 in the absence of inhibitor−OD450 in the presence of inhibitor)/OD450 in the absence of inhibitor)×100.

[3] = system: HMW-MAA^+ melanoma cells Colo38; assay: Immunization of BALB/c mice with peptide-KLH conjugate, HMW-MAA-specific antibodies in sera; type: in vivo; conditions: control peptide immunization
Method: FIG. 9. Development of antibodies with selective reactivity with HMW-MAA^+ cells Colo38 in BALB/c mice immunized with peptide P1C21 and boosted with Colo 38 cells. Mice were immunized with KLH-conjugated peptide P1C21 ( ? ) (50 μg/injection) on day 0, 21, 42, 63, 84 and 105, and with HMW-MAA^+ Colo38 melanoma cells (5×10^5 cells/injection) on day 132. Sera were harvested one week before the first immunization, and one week after each immunization. Two-fold dilutions of sera (100 μl/well) were incubated with HMW-MAA^+ Colo38 melanoma cells (1×10^5/well). Following an additional incubation with HRP-conjugated goat anti-mouse IgG antibodies, the reaction was developed using TMB substrate. O.D. was measured at 450 nm. Results are expressed as the mean±SD of the highest dilution of sera giving 50% of the maximal binding to HMW-MAA^+ cells. Sera from mice immunized with peptide MB1194-208 were used as controls. *p<0.05.
FIG. 10. Flow cytometry analysis of HMW-MAA^+ M14#5/HMW-MAA melanoma cells stained with antibodies elicited by peptide P1C21 and HMW-MAA^+ cells Colo38 in BALB/c mice. […] Cells were then analyzed with a FACScan™ flow cytometry. Results are expressed as fluorescence intensity (empty histogram). […]
FIG. 11. […] Antigens were eluted from the immunoadsorbent, and analyzed by SDS-PAGE in an 8% polyacrylamide gel. […]

HMW-MAA^+ cells Colo38 = assay: Delayed-type hypersensitivity (DTH) reaction in immunized mice; type: in vivo, BALB/c mice; conditions: mice immunized six times, cells injected day 132
Method: FIG. 12. DTH reaction to HMW-MAA^+ melanoma cells Colo38 in BALB/c mice immunized with peptide P1C21. Irradiated (20K rads) HMW-MAA^+ cells Colo38 (5×10^5 cells/mouse) ( ? ) and HMW-MAA^− LG2 cells (5×10^5 cells/mouse) (□) were injected on day 132 into the right and left hind footpad, respectively, of BALB/c mice, which had been immunized six times with peptide P1C21 on days 0, 21, 42, 63, 84 and 105. Amount of swelling induced by the injected cells was measured and calculated by subtracting the thickness of the footpad measured at time 0 h from that measured 24 h after the injection of cells. Mice immunized with control peptide MB1194-208 using the same schedule were injected at the same time point with either Colo38 or LG2 cells, and used as controls. *p<0.05.
Mice which had been immunized six times with peptide P1C21 or control peptide were injected on day 132 s.c. into the right and left hind footpads with irradiated HMW-MAA^+ cells Colo38 (5×10^5 cells/injection/) and HMW-MAA^− cells LG2 (5×10^5 cells/injection/), respectively. The thickness of each footpad was measured and calculated at the indicated times as previously described (Luo et al., J Immunol 174:7104-7110, 2005, herein incorporated by reference).

scFv C21 [4] = assay: Kinetic binding studies by surface plasmon resonance (BIACORE 3000); set-up: species or system human; conditions: scFv C21 immobilized, 25° C., peptide 1 to 32 μM, 1:1 Langmurian model
Method: Binding experiments were performed with the surface plasmon resonance based biosensor instrument BIACORE™ 3000 (Biacore AB, Uppsala, Sweden), at 25° C. Immobilization of scFv C21 in the sensor surface was performed following the standard amine coupling procedure according to the manufacturer's instructions. Briefly, 35 μl of a solution containing 0.2 M N-ethyl-N′-(dimethylaminopropyl) carbodiimide (EDC) and 0.05M N-hydroxysuccinimide (NHS), were injected at a flow rate of 5 μl/min to activate carboxyl groups on the sensor chip surface. scFv C21 ([…] of 10 mM NaOAc buffer, pH 5.0) was flowed over the chip surface at a flow rate of 20 μl/min until the desired bound protein level was reached. Unreacted scFv C21 was washed out and unreacted activated groups were blocked by the injection of 35 μl of 1 M ethanolamine at 5 μl/min. The final immobilization response of scFv C21 was 3,000 RU. A reference surface was generated simultaneously under the same conditions but without scFv C21 injection and used as a blank to correct for instrument and buffer artifacts. Peptides were injected at variable concentrations at different flow rates from 20-100 μl/min. Peptides binding to scFv C21 immobilized on the chip was monitored in real time.
To exclude that binding constants obtained from SPR were not affected by either rebinding of the analyte or mass transport effects, studies were repeated at different flow rates (20-100 μl/min). Kinetic constants obtained at both flow rates remained unchanged.
To evaluate binding, peptides P1C21 and P3C21 were injected at concentrations ranging from 1 to 32 μM. The resulting sensograms were used for estimation of the kinetic constants (kon and koff) by global fitting to the 1:1 Langmurian interaction model. The binding constant (Kd) was calculated for each peptide as a koff/kon ratio.

Row | Substance | Reactivity of immobilized synthetic peptide with scFv C21 in ELISA (scFv C21 [1]) | Inhibition of the binding of scFv C21 to HMW-MAA+ melanoma cells Colo38 (scFv C21 [2]) | Reactivity of immune sera with Colo38 cells [3] | DTH response: swelling of footpad injected with Colo38 cells versus LG2 cells (HMW-MAA^+ cells Colo38) | Koff (scFv C21 [4]) [s⁻¹] | Kon (scFv C21 [4]) [M⁻¹ s⁻¹] | Effect of Asp to Ser replacement at position 10 on ability of P3C21 to inhibit reactivity of scFv C21 with Colo38 cells (scFv C21 [2]; compared with P3C21)
1 | EARNWHDFPIHPRTL (listed as Homo sapiens) [P2C21] | reacted specifically with scFv C21 | did not inhibit the binding of scFv C21 |  |  |  |  | 
2 | MB1194-208: irrelevant peptide derived from the sequence of the proteasome subunit MB1, used as control (AYGVMDRGYSYDLEV) |  |  | displayed no reactivity with Colo38 cells | no swelling of the footpad was observed |  |  | 
3 | RPYRYDPLGDLKSRH [P3C21] | did not | inhibited the binding of scFv C21 to HMW-MAA^+ cells in a dose dependent fashion |  |  | 0.0655 | 2170 | 
4 | RPYRYDPLGSLKSRH [P3S10] |  |  |  |  | 0.00307 | 917 | only a slight effect
